# Legend:
# [1] = target: T1, Endonuclease 8-like 2 (Homo sapiens) (UniProt Q969S2); details: Hit No;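 also: fluorescence at 594 nm reports NEIL2 cutting and release of a quenched double-stranded DNA oligo substrate, reduced signal read as inhibition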
# T1 sequence (whole entry): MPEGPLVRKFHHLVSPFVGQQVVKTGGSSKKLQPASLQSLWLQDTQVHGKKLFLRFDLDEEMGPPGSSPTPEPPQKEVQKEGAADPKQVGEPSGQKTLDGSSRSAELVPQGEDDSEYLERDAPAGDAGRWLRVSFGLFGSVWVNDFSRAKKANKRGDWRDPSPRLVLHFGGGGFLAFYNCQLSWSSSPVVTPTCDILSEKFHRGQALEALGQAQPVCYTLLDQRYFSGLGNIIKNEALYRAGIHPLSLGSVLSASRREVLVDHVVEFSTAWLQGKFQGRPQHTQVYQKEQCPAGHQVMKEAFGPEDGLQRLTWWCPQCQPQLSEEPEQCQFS
# Description: Inhibition of NEIL2 by quantifying inhibition of NEIL2-mediated cleavage and dissociation of quenched duplex DNA oligonucleotides, measured as fluorescence at 594 nm.
# [2] = target: Uracil-DNA glycosylase (Homo sapiens) (UniProt P13051); details: Hit No;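 also: UNG excision on a quenched double-stranded DNA oligo probe, with APE1 added for strand incision and turnover, read as fluorescence at 594 nm as strands separate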
# Uracil-DNA glycosylase (Homo sapiens), sequence (P13051 whole entry): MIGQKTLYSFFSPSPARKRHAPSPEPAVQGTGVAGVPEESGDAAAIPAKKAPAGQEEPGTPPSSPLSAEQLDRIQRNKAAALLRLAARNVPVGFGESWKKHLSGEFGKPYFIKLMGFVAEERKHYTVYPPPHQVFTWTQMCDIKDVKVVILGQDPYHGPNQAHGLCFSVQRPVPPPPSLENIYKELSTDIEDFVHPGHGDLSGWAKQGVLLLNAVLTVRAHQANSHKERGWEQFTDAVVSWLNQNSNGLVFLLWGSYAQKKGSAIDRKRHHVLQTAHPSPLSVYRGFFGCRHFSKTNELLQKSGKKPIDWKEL
# Description: Inhibition of UNG by quantifying inhibition of UNG-mediated cleavage and dissociation of quenched duplex DNA oligonucleotides, measured as fluorescence at 594 nm. To generate a functional strand incision and increase turn-over this assay is coupled to APE1.
# [3] = target: T2, Adenine DNA glycosylase (Homo sapiens) (UniProt Q9UIF7); details: Hit No;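 also: human MUTYH activity read as 594 nm fluorescence from cleavage and release of a quenched DNA duplex, coupled with APE1 for strand incision, lower signal meaning inhibition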
# T2 sequence (whole entry): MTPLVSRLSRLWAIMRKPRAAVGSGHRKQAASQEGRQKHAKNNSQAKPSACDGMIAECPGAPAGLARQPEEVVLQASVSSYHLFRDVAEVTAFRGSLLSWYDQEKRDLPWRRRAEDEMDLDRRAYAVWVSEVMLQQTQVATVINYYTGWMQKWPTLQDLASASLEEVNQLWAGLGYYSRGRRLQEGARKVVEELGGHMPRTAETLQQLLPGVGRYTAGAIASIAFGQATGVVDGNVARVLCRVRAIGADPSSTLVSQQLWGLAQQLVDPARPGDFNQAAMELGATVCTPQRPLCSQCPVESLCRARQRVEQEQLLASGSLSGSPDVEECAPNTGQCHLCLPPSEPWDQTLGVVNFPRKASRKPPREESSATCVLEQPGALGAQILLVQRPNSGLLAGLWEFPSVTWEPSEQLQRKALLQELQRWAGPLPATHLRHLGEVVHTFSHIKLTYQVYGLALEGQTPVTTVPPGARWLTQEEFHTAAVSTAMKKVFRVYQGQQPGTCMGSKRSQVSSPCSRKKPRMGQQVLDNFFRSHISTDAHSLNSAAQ
# Description: Inhibition of MUTYH by quantifying inhibition of MUTYH-mediated cleavage and dissociation of quenched duplex DNA oligonucleotides, measured as fluorescence at 594 nm. To generate a functional strand incision and increase turn-over this assay is coupled to APE1.
# [4] = target: Methyl-CpG-binding domain protein 4 (Homo sapiens) (UniProt O95243); details: Hit No;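 also: MBD4 activity read as fluorescence at 594 nm from cleavage and release of a quenched duplex DNA oligonucleotide, with APE1 coupled to incise the strand and raise turnover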
# Methyl-CpG-binding domain protein 4 (Homo sapiens), sequence (O95243 whole entry, the tested form may be a part): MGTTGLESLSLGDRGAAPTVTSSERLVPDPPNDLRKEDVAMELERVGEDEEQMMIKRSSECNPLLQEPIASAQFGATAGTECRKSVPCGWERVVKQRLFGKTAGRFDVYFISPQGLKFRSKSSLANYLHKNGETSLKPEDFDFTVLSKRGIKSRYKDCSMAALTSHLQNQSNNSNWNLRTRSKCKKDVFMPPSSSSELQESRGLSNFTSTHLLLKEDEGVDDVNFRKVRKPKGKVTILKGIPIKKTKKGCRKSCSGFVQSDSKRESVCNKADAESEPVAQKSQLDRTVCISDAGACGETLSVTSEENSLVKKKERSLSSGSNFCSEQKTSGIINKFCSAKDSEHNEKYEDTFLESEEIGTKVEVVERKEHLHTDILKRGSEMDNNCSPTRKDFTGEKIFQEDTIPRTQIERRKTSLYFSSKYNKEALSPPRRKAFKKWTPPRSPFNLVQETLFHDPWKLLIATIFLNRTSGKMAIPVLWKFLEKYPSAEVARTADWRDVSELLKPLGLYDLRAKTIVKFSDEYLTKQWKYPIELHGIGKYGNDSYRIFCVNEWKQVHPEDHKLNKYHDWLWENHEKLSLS
# Description: Inhibition of MBD4 by quantifying inhibition of MBD4-mediated cleavage and dissociation of quenched duplex DNA oligonucleotides, measured as fluorescence at 594 nm. To generate a functional strand incision and increase turn-over this assay is coupled to APE1.
# [5] = target: N-glycosylase/DNA lyase (Homo sapiens) (UniProt O15527); details: Hit No;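 also: OGG1 cleavage of a quenched duplex DNA oligonucleotide, coupled to APE1 for strand incision, read as fluorescence at 594 nm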
# N-glycosylase/DNA lyase (Homo sapiens), sequence (O15527 whole entry): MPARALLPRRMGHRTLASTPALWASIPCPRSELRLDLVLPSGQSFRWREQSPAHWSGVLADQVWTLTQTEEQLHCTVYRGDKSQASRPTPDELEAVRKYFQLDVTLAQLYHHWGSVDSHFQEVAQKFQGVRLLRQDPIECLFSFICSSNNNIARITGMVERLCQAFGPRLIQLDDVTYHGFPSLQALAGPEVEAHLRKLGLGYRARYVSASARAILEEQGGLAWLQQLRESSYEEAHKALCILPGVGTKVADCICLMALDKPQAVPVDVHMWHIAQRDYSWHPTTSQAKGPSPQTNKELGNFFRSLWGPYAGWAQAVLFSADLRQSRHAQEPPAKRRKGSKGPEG
# Description: Inhibition of OGG1 by quantifying inhibition of OGG1-mediated cleavage and dissociation of quenched duplex DNA oligonucleotides, measured as fluorescence at 594 nm. To generate a functional strand incision and increase turn-over this assay is coupled to APE1.
# [6] = target: T3, Single-strand selective monofunctional uracil DNA glycosylase (Homo sapiens) (UniProt Q53HV7); details: Hit No;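 also: enzymatic SMUG1 assay coupled with APE1, reading fluorescence at 594 nm released when a quenched double-stranded DNA oligonucleotide substrate is cleaved and separated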
# T3 sequence (whole entry): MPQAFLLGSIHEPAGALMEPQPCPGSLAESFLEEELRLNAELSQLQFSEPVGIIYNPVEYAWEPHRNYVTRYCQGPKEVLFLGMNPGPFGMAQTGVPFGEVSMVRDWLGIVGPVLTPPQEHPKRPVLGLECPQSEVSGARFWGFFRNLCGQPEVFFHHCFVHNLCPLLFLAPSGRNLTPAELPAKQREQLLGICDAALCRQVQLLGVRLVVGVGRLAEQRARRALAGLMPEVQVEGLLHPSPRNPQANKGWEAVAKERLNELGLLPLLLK
# Description: Inhibition of SMUG1 by quantifying inhibition of SMUG1-mediated cleavage and dissociation of quenched duplex DNA oligonucleotides, measured as fluorescence at 594 nm. To generate a functional strand incision and increase turn-over this assay is coupled to APE1.
# [7] = target: T4, Endonuclease III-like protein 1 (Homo sapiens) (UniProt P78549);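 also: enzyme assay tracking NTHL1 cutting and release of a quenched double-stranded DNA oligo substrate, read as fluorescence at 594 nm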
# T4 sequence (whole entry): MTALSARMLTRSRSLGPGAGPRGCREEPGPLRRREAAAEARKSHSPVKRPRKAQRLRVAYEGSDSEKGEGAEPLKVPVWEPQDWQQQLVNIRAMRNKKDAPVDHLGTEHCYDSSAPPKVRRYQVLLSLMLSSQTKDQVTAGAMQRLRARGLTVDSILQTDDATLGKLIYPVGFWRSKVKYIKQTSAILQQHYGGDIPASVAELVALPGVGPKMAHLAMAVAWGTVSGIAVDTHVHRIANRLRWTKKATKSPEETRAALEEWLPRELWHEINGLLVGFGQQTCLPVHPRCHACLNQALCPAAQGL
# Description: Inhibition of NTHL1 by quantifying inhibition of NTHL1-mediated cleavage and dissociation of quenched duplex DNA oligonucleotides, measured as fluorescence at 594 nm.
# [8] = target: G/T mismatch-specific thymine DNA glycosylase (Homo sapiens) (UniProt Q13569); details: Hit No;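 also: human TDG cleavage of quenched duplex DNA oligonucleotides coupled to APE1, strand release read as fluorescence at 594 nm, inhibition of TDG activity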
# G/T mismatch-specific thymine DNA glycosylase (Homo sapiens), sequence (Q13569 whole entry): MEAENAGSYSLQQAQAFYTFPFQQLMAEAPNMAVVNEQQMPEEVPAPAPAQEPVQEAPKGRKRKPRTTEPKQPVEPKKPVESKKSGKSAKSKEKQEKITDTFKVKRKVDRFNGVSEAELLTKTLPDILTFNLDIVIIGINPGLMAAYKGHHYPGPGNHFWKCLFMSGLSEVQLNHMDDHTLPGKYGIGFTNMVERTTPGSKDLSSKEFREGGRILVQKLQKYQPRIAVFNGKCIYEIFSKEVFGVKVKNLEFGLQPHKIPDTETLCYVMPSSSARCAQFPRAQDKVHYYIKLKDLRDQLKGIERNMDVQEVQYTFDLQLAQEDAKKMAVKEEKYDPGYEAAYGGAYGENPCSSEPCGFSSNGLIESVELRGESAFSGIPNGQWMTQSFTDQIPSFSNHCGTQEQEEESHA
# Description: Inhibition of TDG by quantifying inhibition of TDG-mediated cleavage and dissociation of quenched duplex DNA oligonucleotides, measured as fluorescence at 594 nm. To generate a functional strand incision and increase turn-over this assay is coupled to APE1.
# [9] = target: Endonuclease 8-like 1 (Homo sapiens) (UniProt Q96FI4); details: Hit No;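 also: fluorescence at 594 nm from quenched duplex DNA oligonucleotides released by NEIL1 cleavage and strand separation, reported as reduction of this enzyme activity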
# Endonuclease 8-like 1 (Homo sapiens), sequence (Q96FI4 whole entry): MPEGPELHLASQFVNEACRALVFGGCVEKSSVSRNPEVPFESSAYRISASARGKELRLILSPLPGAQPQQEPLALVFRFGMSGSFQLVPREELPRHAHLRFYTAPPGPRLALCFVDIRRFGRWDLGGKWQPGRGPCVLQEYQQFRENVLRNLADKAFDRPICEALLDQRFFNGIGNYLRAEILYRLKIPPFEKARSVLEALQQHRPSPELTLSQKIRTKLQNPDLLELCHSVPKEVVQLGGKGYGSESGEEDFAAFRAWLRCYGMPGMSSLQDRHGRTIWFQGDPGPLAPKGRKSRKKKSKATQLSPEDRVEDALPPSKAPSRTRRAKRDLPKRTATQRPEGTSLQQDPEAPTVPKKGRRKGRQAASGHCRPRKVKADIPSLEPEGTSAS
# Description: Inhibition of NEIL1 by quantifying inhibition of NEIL1-mediated cleavage and dissociation of quenched duplex DNA oligonucleotides, measured as fluorescence at 594 nm.
# [10] = Compound Concentration 10.0 uM, Hit No
# [11] = Compound Concentration 1.0 uM, Hit No
Structure (SMILES),inhibition ([1]; Compound Concentration 10.0 uM),inhibition ([2]; Compound Concentration 10.0 uM),inhibition ([3]; Compound Concentration 10.0 uM),inhibition ([4]; Compound Concentration 10.0 uM),inhibition ([5]; Compound Concentration 10.0 uM),inhibition ([6]; Compound Concentration 10.0 uM),"inhibition [7, 10]",inhibition ([8]; Compound Concentration 10.0 uM),inhibition ([9]; Compound Concentration 10.0 uM),inhibition ([1]; Compound Concentration 1.0 uM),inhibition ([2]; Compound Concentration 1.0 uM),inhibition ([3]; Compound Concentration 1.0 uM),inhibition ([4]; Compound Concentration 1.0 uM),inhibition ([5]; Compound Concentration 1.0 uM),inhibition ([6]; Compound Concentration 1.0 uM),"inhibition [7, 11]",inhibition ([8]; Compound Concentration 1.0 uM),inhibition ([9]; Compound Concentration 1.0 uM),"inhibition ([7]; Compound Concentration 10.0 uM, Hit Yes)"
CN1CCN(C(=O)c2ccc3cc2OCCOCCNc2ccn4ncc-3c4n2)CC1,-5.69%,1.81%,-5.82%,17.6%,2.08%,13.6%,-5.49%,38.5%,1.85%,–,–,–,–,–,–,–,–,–,–
O=C(O)c1cc(F)c2nc(N3[C@@H]4CC[C@H]3C[C@@H](OCc3c(-c5ccccc5OC(F)(F)F)noc3C3CC3)C4)sc2c1,-1.76%,4.52%,11.9%,61.7%,67.8%,17.7%,10.6%,99.3%,-9.38%,–,–,–,–,–,–,–,–,–,–
Cc1cc(Nc2nccc(C)n2)cc(-c2cnc([C@@]3(O)CC[C@H](C(=O)O)C(C)(C)C3)s2)c1,–,–,–,–,–,–,–,–,–,-5.61%,2.21%,3.53%,25.6%,9.85%,13.6%,-4.56%,40.8%,-7.58%,–
CCNC(=O)N1CCCN(c2ccc(C(=O)NCCc3ccc(Cl)cc3Cl)cc2NC(=O)c2cccc(Cl)c2)CC1,3.98%,3.51%,5.24%,-1.37%,-8.02%,5.69%,-5.21%,3.38%,3.27%,–,–,–,–,–,–,–,–,–,–
Cc1c(N2CCCC2)nc2ccc(Br)cc2c1C(=O)NC[C@H](CCC(=O)O)c1ccccc1Cl,-0.744%,5.08%,22%,69.2%,31.5%,12.3%,-1.95%,54%,3.19%,–,–,–,–,–,–,–,–,–,–
COCCCS(=O)(=O)c1cc(C)c(-c2ccc(F)c3c2CC[C@H]3Oc2ccc3c(c2)OC[C@H]3CC(=O)O)c(C)c1,6.65%,-1.09%,-1.52%,67.8%,31%,6.73%,-5.89%,59.1%,-3.62%,–,–,–,–,–,–,–,–,–,–
CCCCCNC(=O)N1CCC(CN(Cc2ccc(Cl)cc2)Cc2ccc([N+](=O)[O-])s2)C1 (centres undefined),-1.51%,9.26%,-5.57%,57.7%,13.5%,13.7%,1.34%,98.5%,-3.17%,–,–,–,–,–,–,–,–,–,–
CC(C)(O)[C@H](F)CN1Cc2cc(NC(=O)c3cnn4cccnc34)c(N3CCOCC3)cc2C1=O,3.79%,2.48%,-1.18%,25.9%,0.815%,15.8%,0.755%,45.3%,-5.19%,–,–,–,–,–,–,–,–,–,–
Cc1cc(SCc2sc(-c3ccc(C(F)(F)F)cc3)nc2C)ccc1OCC(=O)O,1.55%,-0.945%,14.6%,60%,62.7%,18.5%,17.8%,98.5%,-2.11%,–,–,–,–,–,–,–,–,–,–
Cc1cc(OCCC(C)(C)O)cc(C)c1-c1ccc(F)c2c1CC[C@H]2Oc1ccc2c(c1)OC[C@H]2CC(=O)O,-1.76%,1.96%,10%,64.2%,78.7%,18.5%,-4.57%,61.7%,-2.26%,–,–,–,–,–,–,–,–,–,–
O=C(O)c1ccc(-c2coc3ncc(-c4ccccc4)cc23)cc1Cl,1.31%,3.81%,30.1%,-2.05%,13.2%,25.7%,1.48%,45.9%,7.67%,–,–,–,–,–,–,–,–,–,–
C[C@H](NC(=O)c1c(C(F)F)nn(C)c1Oc1cccc(C(F)(F)F)c1)c1ccc(C(=O)O)cc1,11.8%,-7.93%,15.2%,-2.06%,-5.88%,2.15%,16.6%,11.8%,-3.02%,–,–,–,–,–,–,–,–,–,–
O=C1c2ccc(Nc3ccc(F)cc3F)cc2CCc2ccc(OC[C@H](O)CO)cc21,4.92%,8.79%,-4.85%,32.4%,-9.94%,11.5%,0.775%,39.4%,-0.672%,–,–,–,–,–,–,–,–,–,–
Cc1cc(OC2CCS(=O)(=O)CC2)cc(C)c1-c1cccc(COc2ccc(C(=O)O)c(F)c2)c1,-1.51%,6.33%,8.53%,67.4%,31.5%,23.6%,-5.23%,100%,-1.96%,–,–,–,–,–,–,–,–,–,–
Cc1cccc(-c2[nH]c(CNc3ccccc3F)nc2-c2ccc3ncnn3c2)n1,–,–,–,–,–,–,–,–,–,6.16%,-5.91%,6.74%,12.7%,4.54%,-5.72%,-6.89%,35.6%,-2.11%,–
CN(C)CC#Cc1ccc2[nH]c3c(c2c1)-c1nc(N)ncc1CCC3,–,–,–,–,–,–,–,–,–,4.81%,3.22%,1.71%,3.44%,3.18%,11.2%,10.6%,46.8%,2.65%,–
Cc1cc(-n2nc(Cc3cc(F)cc(C(F)(F)F)c3)nc2C)ccc1C(N)=O,-0.234%,2.38%,0.715%,59.6%,-5.77%,18.8%,7.26%,97.3%,-6.95%,–,–,–,–,–,–,–,–,–,–
CO[C@H]1/C=C/O[C@@]2(C)Oc3c(C)c(O)c4c(O)c(c(/C=N/N5CCN(C)CC5)c(O)c4c3C2=O)NC(=O)/C(C)=C\C=C\[C@H](C)[C@H](O)[C@@H](C)[C@@H](O)[C@@H](C)[C@H](OC(C)=O)[C@@H]1C,-0.744%,20%,34.5%,74.6%,23.7%,26.1%,–,64%,-4.08%,–,–,–,–,–,–,–,–,–,27.6%
C=C1/C(=C\C=C2/CCC[C@]3(C)[C@@H]([C@H](C)CCCC(C)(C)O)CC[C@@H]23)C[C@@H](O)C[C@@H]1O,-1.25%,-0.617%,-4.04%,57%,10.5%,0.349%,-8.52%,75.3%,-6.8%,–,–,–,–,–,–,–,–,–,–
C[C@@H]1CCc2ncc(F)cc2[C@H]2CCCN2c2ccn3ncc(c3n2)C(=O)N1,-1.65%,4.92%,17.4%,0.277%,2.29%,26.7%,-1.31%,40.3%,2.25%,–,–,–,–,–,–,–,–,–,–
N#CC1(c2ccccn2)CCN(Cc2cc(C(=O)N3CCCC3)c(=O)n3ccccc23)CC1,4.87%,2.35%,-9.61%,68.6%,13.7%,16.3%,2%,39.8%,-0.745%,–,–,–,–,–,–,–,–,–,–

# — ChEMBL document CHEMBL5665443, “Enzyme Inhibitor Single Concentration assay results for EUbOPEN Chemogenomics Library” (2024)
